Reference: BindingDB's records for PubMed 8102785 (University of Pennsylvania, 1993)
*1 amine or outer side, *2 acyl side, *3 side chain or, on linkers, in order; H or OH if unused. Where a SMILES comes first, the peptide text is derived from it. Bridges are numbered along the chain shown (N, C = ends). [ ]: non-standard residue; d: D form. The star is where a group is joined. ξ: configuration not given here. Phe(4-NO2) = N[C@@H](Cc1ccc([N+](=O)[O-])cc1)C(=O)O; X3 = C[C@@H](C(=O)[*:2])N(Cc1ccc2ccccc2c1)[*:1]; NH(1-naphthylmethyl) = c1ccc2c(CN*)cccc2c1; Phe(4-Cl) = N[C@@H](Cc1ccc(Cl)cc1)C(=O)O; dPhe(4-Cl) = N[C@H](Cc1ccc(Cl)cc1)C(=O)O; 1Nal = N[C@@H](Cc1cccc2ccccc12)C(=O)O; 2Nal = N[C@@H](Cc1ccc2ccccc2c1)C(=O)O; d1Nal = N[C@H](Cc1cccc2ccccc12)C(=O)O; d2Nal = N[C@H](Cc1ccc2ccccc2c1)C(=O)O; dThr(3ξ) = CC(O)[C@@H](N)C(=O)O; X1 = O=C(C(N[*:1])S[*:3])[*:2]; Thr(3ξ) = CC(O)[C@H](N)C(=O)O; NMeA = CN[C@@H](C)C(=O)O; ξF = NC(Cc1ccccc1)C(=O)O; Abu = CC[C@H](N)C(=O)O; X2 = CC(O)[C@H](CO)N*; Ahp = NCCCCCCC(=O)O; ξC = NC(CS)C(=O)O; Mpa = O=C(O)CCS

molecular target: Somatostatin receptor type 4 (Rattus norvegicus, UniProt P30937)
Sequence (P30937 whole entry): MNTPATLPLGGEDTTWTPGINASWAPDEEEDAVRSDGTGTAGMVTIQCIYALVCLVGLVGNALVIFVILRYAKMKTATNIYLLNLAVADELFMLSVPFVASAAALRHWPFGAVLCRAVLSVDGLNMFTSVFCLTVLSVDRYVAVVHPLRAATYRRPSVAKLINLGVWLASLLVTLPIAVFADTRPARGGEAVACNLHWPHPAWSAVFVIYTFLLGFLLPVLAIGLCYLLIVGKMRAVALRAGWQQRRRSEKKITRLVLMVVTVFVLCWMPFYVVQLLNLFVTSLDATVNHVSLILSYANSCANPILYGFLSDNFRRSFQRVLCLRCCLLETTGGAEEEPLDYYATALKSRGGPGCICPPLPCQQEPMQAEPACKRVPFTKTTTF

| SMILES | Ki |
| --- | --- |
| CC(C)[C@@H]1NC(=O)[C@@H](CCCCN)NC(=O)[C@@H](Cc2c[nH]c3ccccc23)NC(=O)[C@@H](Cc2ccc(O)cc2)NC(=O)[C@@H](C)N(C)C(=O)[C@@H](Cc2ccccc2)NC1=O | 26 nM |
| CC(O)[C@H](CO)NC(=O)[C@@H]1CSSCC(NC(=O)C(N)Cc2ccccc2)C(=O)N[C@H](Cc2ccccc2)C(=O)N[C@H](Cc2c[nH]c3ccccc23)C(=O)N[C@H](CCCCN)C(=O)N[C@H](C(C)O)C(=O)N1 (stereo partly drawn) (H-[ξF][ξC][dF][dW][dK][dThr(3ξ)]C-X2; disulfide 2-7) | 0.57 nM |
| C[C@@H](O)[C@@H]1NC(=O)[C@H](CCCCN)NC(=O)[C@@H](Cc2c[nH]c3ccccc23)NC(=O)[C@H](Cc2ccccc2)NC(=O)[C@@H]2CCCN2C(=O)[C@H](Cc2ccccc2)NC1=O (cyclo(PF[dW]KTF)) | 3.2 nM |
| CC(C)[C@@H]1NC(=O)[C@H](CCCCN)NC(=O)[C@@H](Cc2c[nH]c3ccccc23)NC(=O)[C@H](Cc2ccc(O)cc2)NC(=O)[C@@H](NC(=O)[C@H](N)Cc2ccc3ccccc3c2)CSSC[C@@H](C(=O)N[C@H](C(N)=O)[C@@H](C)O)NC1=O [3-(2-Naphtyl)-D-Ala-L-Cys(1)-L-Tyr-D-Trp-L-Lys-L-Val-L-Cys(1)-L-Thr-NH2] | 0.1 nM |
| C[C@@H](O)[C@@H]1NC(=O)[C@H](CCCCN)NC(=O)[C@@H](Cc2c[nH]c3ccccc23)NC(=O)[C@H](Cc2ccccc2)NC(=O)[C@@H]2CSSCC(NC1=O)C(=O)NCCCCCCC(=O)N2 [(1R,4S,7S,10R,13S,16R)-4-[(R)-1-Hydroxyethyl]-7-(4-aminobutyl)-10-(1H-indole-3-ylmethyl)-13-benzyl-28,29-dithia-2,5,8,11,14,17,25-heptaazabicyclo[14.10.4]triacontane-3,6,9,12,15,18,26-heptone] (cyclo([Ahp]CF[dW]KT[ξC]); disulfide 2-7) | 1.2 nM |
| CC1NC(=O)C(CCCCN)NC(=O)C(Cc2c[nH]c3ccccc23)NC(=O)C(Cc2ccc(O)cc2)NC(=O)C(NC(=O)C(N)Cc2ccccc2)CSSCC(C(=O)NCc2cccc3ccccc23)NC1=O (stereo not drawn) [BIM 23034] (H-FCYWKAC-{NH(1-naphthylmethyl)}; disulfide 2-7; configuration not given here) | 0.19 nM |
| CC(C)[C@@H]1NC(=O)[C@H](CCCCN)NC(=O)[C@@H](Cc2c[nH]c3ccccc23)NC(=O)[C@H](Cc2ccc(O)cc2)NC(=O)[C@@H](NC(=O)[C@H](N)Cc2ccc3ccccc3c2)CSSC[C@@H](C(=O)N[C@@H](Cc2ccc3ccccc3c2)C(N)=O)NC1=O [BIM 23042] (H-[d2Nal]CY[dW]KVC[2Nal]-NH2; disulfide 2-7) | 5.2 nM |
| CC(O)C1NC(=O)C(CCCCN)NC(=O)C(Cc2c[nH]c3ccccc23)NC(=O)C(Cc2ccc(O)cc2)NC(=O)C(NC(=O)C(N)Cc2ccccc2)CSSCC(C(=O)NCc2cccc3ccccc23)NC1=O (stereo not drawn) [BIM 23060] (H-FCYWKTC-{NH(1-naphthylmethyl)}; disulfide 2-7; configuration not given here) | 0.09 nM |
| CC[C@@H]1NC(=O)[C@H](CCCCN)NC(=O)[C@@H](Cc2c[nH]c3ccccc23)NC(=O)[C@H](Cc2ccc(O)cc2)NC(=O)[C@H](C)N(C)C(=O)[C@H](Cc2ccccc2)NC1=O [BIM-23027] (cyclo([Abu]F[NMeA]Y[dW]K)) | 6.2 nM |
| CC(C)[C@@H]1NC(=O)[C@H](CCCCN)NC(=O)[C@@H](Cc2c[nH]c3ccccc23)NC(=O)[C@H](Cc2ccc(O)cc2)NC(=O)CCSSC(C(=O)N[C@@H](Cc2ccccc2)C(N)=O)NC1=O (stereo partly drawn) [CAS_117580-24-2] ([Mpa]Y[dW]KV[X1]F-NH2; disulfide 1-6) | 3.9 nM |
| CC(C)C1NC(=O)C(CCCCN)NC(=O)C(Cc2c[nH]c3ccccc23)NC(=O)C(Cc2ccc(O)cc2)NC(=O)C(C)N(C)C(=O)C(Cc2ccccc2)NC1=O (stereo not drawn) [CAS_3086456] | 5.5 nM |
| C[C@@H](O)[C@H](NC(=O)[C@@H]1CSSC[C@H](NC(=O)[C@H](N)Cc2ccc3ccccc3c2)C(=O)N[C@@H](Cc2ccc(O)cc2)C(=O)N[C@H](Cc2c[nH]c3ccccc23)C(=O)N[C@@H](CCCCN)C(=O)N[C@@H]([C@@H](C)O)C(=O)N1)C(N)=O [D-Nal-c[Cys-Tyr-D-Trp-Lys-Thr-Cys]-Thr-NH2] | 0.08 nM |
| CC[C@@H]1NC(=O)[C@H](CCCCN)NC(=O)[C@@H](Cc2c[nH]c3ccccc23)NC(=O)[C@H](Cc2ccc(O)cc2)NC(=O)[C@@H](NC(=O)[C@H](N)Cc2ccccc2)CSSC[C@@H](C(=O)N[C@@H](Cc2ccc3ccccc3c2)C(N)=O)NC1=O [D-Phe-Cys-Tyr-D-Trp-Lys-Abu-Cys-Nal-NH] (H-[dF]CY[dW]K[Abu]C[2Nal]-NH2; disulfide 2-7) | 6 nM |

Other lines, results leading:

| Ki | SMILES |
| --- | --- |
| 53 nM | CC(O)[C@H](NC(=O)[C@H](CCCCN)NC(=O)[C@@H](Cc1c[nH]c2ccccc12)NC(=O)[C@H](Cc1ccccc1)NC(=O)[C@@H](C)NC(=O)[C@@H](N)Cc1ccccc1)C(=O)N[C@@H](C)C(=O)N[C@H](C(N)=O)[C@@H](C)O (stereo partly drawn) [BIM 23051] (H-F[dA]F[dW]K[Thr(3ξ)]AT-NH2) |
| 43 nM | CC(C)[C@H](NC(=O)[C@H](CCCCN)NC(=O)[C@@H](Cc1c[nH]c2ccccc12)NC(=O)[C@H](Cc1ccc(O)cc1)NC(=O)[C@H](Cc1ccccc1)NC(=O)[C@H](N)Cc1ccccc1)C(=O)N[C@@H](Cc1ccccc1)C(=O)N[C@H](Cc1cccc2ccccc12)C(N)=O [BIM 23056] (H-[dF]FY[dW]KVF[d1Nal]-NH2) |
| 8.1 nM | CC(C)[C@H](NC(=O)[C@H](CCCCN)NC(=O)[C@@H](Cc1c[nH]c2ccccc12)NC(=O)[C@H](Cc1ccc(O)cc1)NC(=O)[C@H](Cc1ccc(Cl)cc1)NC(=O)[C@H](N)Cc1ccccc1)C(=O)N[C@@H](Cc1ccccc1)C(=O)N[C@H](C(N)=O)[C@@H](C)O [BIM 23057] (H-[dF][Phe(4-Cl)]Y[dW]KVFT-NH2) |
| 43 nM | CC(C)[C@H](NC(=O)[C@H](CCCCN)NC(=O)[C@@H](Cc1c[nH]c2ccccc12)NC(=O)[C@H](Cc1ccc(O)cc1)NC(=O)[C@H](Cc1ccc(Cl)cc1)NC(=O)[C@@H](N)Cc1ccccc1)C(=O)N[C@@H](Cc1ccccc1)C(=O)N[C@@H](Cc1ccc2ccccc2c1)C(N)=O [BIM 23063] (H-F[Phe(4-Cl)]Y[dW]KVF[2Nal]-NH2) |
| 17 nM | CC(C)[C@H](NC(=O)[C@H](CCCCN)NC(=O)[C@@H](Cc1c[nH]c2ccccc12)NC(=O)[C@H](Cc1ccc(O)cc1)NC(=O)[C@H](Cc1ccc(Cl)cc1)NC(=O)[C@@H](N)Cc1ccccc1)C(=O)N[C@@H](Cc1ccccc1)C(=O)N[C@H](C)C(N)=O [BIM 23064] (H-F[Phe(4-Cl)]Y[dW]KVF[dA]-NH2) |
| 2.4 nM | CC(C)[C@H](NC(=O)[C@H](CCCCN)NC(=O)[C@@H](Cc1c[nH]c2ccccc12)NC(=O)[C@H](Cc1ccc(O)cc1)NC(=O)[C@H](Cc1ccc([N+](=O)[O-])cc1)NC(=O)[C@H](N)Cc1ccccc1)C(=O)N[C@@H](Cc1ccccc1)C(=O)N[C@H](C(N)=O)[C@@H](C)O [BIM 23066] (H-[dF][Phe(4-NO2)]Y[dW]KVFT-NH2) |
| 15 nM | CC[C@H](NC(=O)[C@@H](N)Cc1ccc(Cl)cc1)C(=O)N[C@@H](Cc1ccc(O)cc1)C(=O)N[C@H](Cc1c[nH]c2ccccc12)C(=O)N[C@@H](CCCCN)C(=O)N[C@H](C(=O)N[C@@H](C)C(=O)N[C@H](Cc1ccccc1)C(N)=O)C(C)C [BIM 23067] (H-[Phe(4-Cl)][Abu]Y[dW]KVA[dF]-NH2) |
| 1.1 nM | C[C@@H](O)[C@H](NC(=O)[C@H](Cc1ccccc1)NC(=O)[C@@H](NC(=O)[C@H](CCCCN)NC(=O)[C@@H](Cc1c[nH]c2ccccc12)NC(=O)[C@H](Cc1ccc(O)cc1)NC(=O)[C@H](Cc1ccc(Cl)cc1)NC(=O)[C@H](N)Cc1ccccc1)[C@@H](C)O)C(N)=O [BIM 23068] (H-[dF][Phe(4-Cl)]Y[dW]KTFT-NH2) |
| 10 nM | CC(O)[C@H](NC(=O)[C@H](CCCCN)NC(=O)[C@@H](Cc1c[nH]c2ccccc12)NC(=O)[C@H](Cc1ccc(O)cc1)NC(=O)[C@@H](C)NC(=O)[C@@H](N)Cc1ccccc1)C(=O)N[C@@H](C)C(=O)N[C@@H](Cc1cccc2ccccc12)C(N)=O (stereo partly drawn) [BIM 23070] (H-F[dA]Y[dW]K[Thr(3ξ)]A[1Nal]-NH2) |
| 1.2 nM | CC(C)[C@H](NC(=O)[C@H](CCCCN)NC(=O)[C@@H](Cc1c[nH]c2ccccc12)NC(=O)[C@H](Cc1ccc(O)cc1)NC(=O)[C@H](Cc1ccccc1)NC(=O)[C@@H](N)Cc1ccccc1)C(=O)N[C@@H](Cc1ccccc1)C(=O)N[C@H](C(N)=O)[C@@H](C)O [BIM-23058] (H-FFY[dW]KVFT-NH2) |
| 0.002 nM | C[C@@H](O)[C@H](NC(=O)[C@H](Cc1ccccc1)NC(=O)[C@@H](NC(=O)[C@H](CCCCN)NC(=O)[C@@H](Cc1c[nH]c2ccccc12)NC(=O)[C@H](Cc1ccccc1)NC(=O)[C@H](Cc1ccccc1)NC(=O)[C@H](N)Cc1ccccc1)[C@@H](C)O)C(N)=O [CAS_133073-82-2] (H-[dF]FF[dW]KTFT-NH2) |
| 9.5 nM | C[C@@H](O)[C@H](NC(=O)[C@H](Cc1ccccc1)NC(=O)[C@@H](NC(=O)[C@H](CCCCN)NC(=O)[C@@H](Cc1c[nH]c2ccccc12)NC(=O)[C@H](Cc1ccc(O)cc1)NC(=O)[C@H](Cc1ccc(Cl)cc1)NC(=O)[C@H](N)Cc1ccc2ccccc2c1)[C@@H](C)O)C(N)=O [CAS_150155-63-8] (H-[d2Nal][Phe(4-Cl)]Y[dW]KTFT-NH2) |
| 14 nM | CC(C)[C@H](NC(=O)[C@H](CCCCN)NC(=O)[C@@H](Cc1c[nH]c2ccccc12)NC(=O)[C@H](Cc1ccc(O)cc1)NC(=O)[C@H](C)NC(=O)[C@H](N)Cc1ccc(Cl)cc1)C(=O)N[C@@H](C)C(=O)N[C@@H](Cc1ccc2ccccc2c1)C(N)=O [CAS_150155-67-2] (H-[dPhe(4-Cl)]AY[dW]KVA[2Nal]-NH2) |
| 146 nM | CC(C)[C@H](NC(=O)[C@H](CCCCN)NC(=O)[C@@H](Cc1c[nH]c2ccccc12)NC(=O)[C@H](Cc1ccc(O)cc1)NC(=O)[C@H](C)NCc1ccc2ccccc2c1)C(=O)N[C@@H](C)C(=O)N[C@H](C(N)=O)[C@@H](C)O [D-Nal-Ala-Tyr-D-Trp-Lys-Val-Ala-Thr-NH2] (H-[X3]Y[dW]KVAT-NH2) |
| 5.9 nM | CC(C)[C@H](NC(=O)[C@H](CCCCN)NC(=O)[C@@H](Cc1c[nH]c2ccccc12)NC(=O)[C@H](Cc1ccc(O)cc1)NC(=O)[C@H](C)NC(=O)[C@H](N)Cc1ccccc1)C(=O)N[C@@H](C)C(=O)N[C@H](Cc1ccc2ccccc2c1)C(N)=O [D-Phe-AIa-Tyr-D-Trp-Lys-Val-Ala-D-Nal-NH2] (H-[dF]AY[dW]KVA[d2Nal]-NH2) |
